# Source: US5599789A, “Method for the treatment of tumours and sarcomas” (Amrad Corporation Limited, priority 1991, dated 1997)
# pKd: −log10 of the molar value. “Also recorded” adds a separate entry of the source.
# Experiments:
# [1] = test system: Ewing's Sarcoma cell line Al (uncloned); assay: Colony formation in semi-solid agar cultures, Al (uncloned) cells; type: cell-based, human; conditions: Al(uncloned), 5,000 cells, day 18
# Procedure: (§1) Tumour cells obtained from biopsy and bone marrow specimens from patients with Ewing's Sarcoma were used in these studies. Approval for this project has been obtained from the Ethics Committee of the Royal Children's Hospital.
# (§2) Single cell suspensions of tumour cells were obtained by mechanical disruption with an 18G or 21G needle or by pipetting, followed by incubation with dispase II (Boehringer) at a concentration of 1.2 units per ml for 10 minutes at 37° C. Prior to the addition to agar-medium the cells were vortexed gently to prevent clumping.
# (§3) Clonal cell lines were grown in Iscove's Modified Dulbecco's Medium (IMDM) supplemented with 10% v/v foetal calf serum (FCS; CSL Limited, Melbourne, Australia) and were passaged either weekly or twice weekly. The characteristics of the Ewing Sarcoma cell lines used herein as described below:
# (§4) The tumour cells were immobilised in 0.3% w/v agar containing Iscove's Modified Dulbecco's Medium (IMDM) and 10% v/v FCS. […] Cultures were scored for the presence of colonies (>40 cells) or clusters (<40 cells). The number of cells plated per culture ranged from 500 to 10,000 per ml. Colonies were counted on an Olympus dissecting microscope.
# (§5) IL-1, IL-3, IL-4, IL-6, M-CSF, G-CSF, GM-CSF, Stem Cell Factor (SCF), TNFα, TGFα, TGFβ, EGF, aFGF, bFGF, NGF, IGF I, IGF II, PDGF and IFN-γ.
# (§6) The recombinant human leukaemia inhibitory factor (LIF) was obtained from AMRAD Corporation Limited, Melbourne, Australia.
# [2] = test system: Ewing's Sarcoma cell line Al-8; assay: Colony formation in semi-solid agar cultures, Al-8 cells; type: cell-based, human; conditions: Al-8, 1,000 cells, day 18
# Procedure: as §1, §2, §3
# (§7) Cell lines derived from the above primary cell lines (Al and Cu) are identified by an Arabic numeral (e.g. Al-1, Al-5, Al-8 or Cu-1).
# as §4, §5, §6
# [3] = test system: Ewing's Sarcoma cell line Al-1; assay: Colony formation in semi-solid agar cultures, Al-1 cells; type: cell-based, human; conditions: day 18
# Procedure: as §1, §2, §3, §7, §4, §5, §6
# [4] = test system: Ewing's Sarcoma cells; assay: Colony formation in agar cultures, a number of different Ewing's cell lines (summary statements); type: cell-based, human
# Excerpt: as §4
# [5] = test system: LIF receptors on Ewing sarcoma cell line Al5; assay: 125I-hLIF binding, Scatchard analysis, cloned line Al5; set-up: species or system human; conditions: Al5 cells, 3 hrs on ice, Scatchard slope, read-out: Equilibrium dissociation constant
# Procedure: (§8) A cloned Ewing sarcoma cell line Al5 (7×10^6 per point) in 100 μl of RPMI-medium containing 10 mM Hepes buffer pH 7.4 and 10% v/v foetal calf serum were incubated with increasing concentrations of ^125 I-hLIF (E. coli derived) (5000-800,000 cpm: 100,000 cpm/ng) with or without 5 μg/ml of unlabelled hLIF for 3 hrs on ice. The incubation mixture was then layered over 180 μl cold foetal calf serum, centrifuged at top speed in an Eppendoff microfuge for 10 sec and the tip of the tube containing the cell pellet cut with a scalpel blade and removed for counting in a gamma counter.
# [6] = test system: LIF receptors on different Ewing sarcoma cells; assay: 125I-hLIF binding, second independent Scatchard analysis; set-up: species or system human; conditions: read-out: Equilibrium dissociation constant
# Procedure: as §8
# [7] = test system: Ewing's sarcoma cells (cell line A1-5) xenograft; assay: Ewing's tumour growth in SCID mice (subcutaneous xenograft); type: in vivo; conditions: for Histology of subcutaneous tumours / Mitotic figures in tumours: hLIF 20 μg/day, 18 days; for Histology of subcutaneous tumours: Haematoxylin and Eosin; for Mitotic figures in tumours: histology
# Excerpt: Scid mice were obtained from the Animal Resource Centre, Willetton, Western Austarlia. All mice were aged 5-8 weeks, and were the same sex (male). Severe immunodeficiency (scid) is an autosomal recessive mutation that occurred spontaneously in the CB 17 (CB-IgH-1^b (N17F34)) congenic strain (16). In this congenic strain, the inbred BALB/c strain carried the immunoglobulin heavy-chain allele (Igh-I^b) of the C57BL/Ka strain. The SCID locus has been mapped to the centromeric end of chromosome 16 (16). These mice have defective T and B cell immunity, thus allowing for engraftment of many foreign cells. The mice were maintained in a laminar flow unit. In order to reduce the mortality from infection, the mice were kept in previously autoclaved cages, and autoclaved food and acidified water was used.
# Recombinant human LIF (hLIF) derived from E. coli (Lot 122, AMRAD Corporation Limited) was used. Recombinant mouse LIF (Lot 308, AMRAD Corporation Limited) and PBS/1% w/v BSA were used as controls for the in vivo injections.
# 5-8×10^6 cloned Ewing's sarcoma cells (cell line A1-5), were injected subcutaneously into SCID mice. Tumours were scored after about 3 weeks in almost all mice at the injection site.
# To examine the effect of heterologous and homologous LIF relative to the mammal being treated, a double blind controlled study was performed using tumour bearing SCID mice that were injected with hLIF (20 μg per mouse), mouse LIF (100 ng per mouse), or PBS/1% w/v BSA. The effective amount of hLIF was required to be higher than mLIF due to the presence of high circulating levels of a hLIF binding protein in mice (17). Eight mice were injected in each group with the majority of mice in the hLIF group surviving over 2 weeks (range 15-31 days). Tumour size was assessed using calibrated calibers, with measurements in the depth, length and width of the tumours. […] The trend for smaller tumours in hLIF treated mice was evident prior to the wasting syndrome. Although not wishing to limit the present invention to any one hypothesis as to mode of action, this phenomenon may be a manifestation of LIF toxicity in mice. In most cases, this trend was noticeable within 7 days after hLIF injections.
# Histological examination of the subcutaneous tumours was performed on all mice, as was a full necropsy.
# [8] = stimulus 100 ng, mean of duplicate colony counts
# [9] = hLIF 20 μg per mouse daily s.c.
substance,measurement,setting,value
LIF: recombinant human leukaemia inhibitory factor (E. coli derived) from AMRAD Corporation Limited,Colonies/Cultures,[1]; stimulus 0.01 ng,222
same,Colonies/Cultures,[1]; stimulus 0.1 ng,205
same,Colonies/Cultures,[1]; stimulus 1 ng,160
same,Colonies/Cultures,[1]; stimulus 10 ng,10
same,Colonies/Cultures,[1]; [8],8
same,Colonies/Cultures,[2]; stimulus 0.01 ng,68
same,Colonies/Cultures,[2]; stimulus 0.1 ng,29
same,Colonies/Cultures,[2]; stimulus 1 ng,23
same,Colonies/Cultures,[2]; stimulus 10 ng,6
same,Colonies/Cultures,[2]; [8],3
same,Colonies/Cultures,"[3]; Al-1, 1,000 cells, stimulus 0.01 ng",50
same,Colonies/Cultures,"[3]; Al-1, 1,000 cells, stimulus 0.1 ng",39
same,Colonies/Cultures,"[3]; Al-1, 1,000 cells, stimulus 1 ng",23
same,Colonies/Cultures,"[3]; Al-1, 1,000 cells, stimulus 10 ng",24
same,Colonies/Cultures,"[3]; Al-1, 1,000 cells, stimulus 100 ng, mean of duplicate colony counts",32
same,Colonies/Cultures,"[3]; Al-1, 10,000 cells, stimulus 0.01 ng",695
same,Colonies/Cultures,"[3]; Al-1, 10,000 cells, stimulus 0.1 ng",305
same,Colonies/Cultures,"[3]; Al-1, 10,000 cells, stimulus 1 ng",129
same,Colonies/Cultures,"[3]; Al-1, 10,000 cells, stimulus 10 ng",17
same,Colonies/Cultures,"[3]; Al-1, 10,000 cells, stimulus 100 ng, mean of duplicate colony counts",18
same,Effect on colony counts,"[4]; between 0.1 and 100 ng LIF per culture, agar cultures, different Ewing's cell lines",able to significantly reduce colony counts
same,Magnitude of colony reduction relative to other growth factors tested,[4]; culture of Ewing's Sarcoma cells,greater than those induced by other growth factors tested
same,Number of colonies compared to untreated controls,"[4]; culture of Ewing's Sarcoma cells, dose-dependent",significantly reduces the number of colonies
same,pKd,[5],10.05
same,pKd,[6],9.89
same,Time until trend for smaller tumours was noticeable,"[7]; after hLIF injections, 20 μg per mouse, in most cases",≤ 7 days
same,Survival of the majority of mice,[7]; [9],over 2 weeks
same,Tumour size compared to PBS controls,[7]; [9],significantly reduced in size; also recorded: significantly smaller
same,Survival range of tumour bearing mice,"[7]; hLIF 20 μg per mouse daily s.c., eight mice",15 to 31 days
same,Histology of subcutaneous tumours,[7],mainly composed of necrotic areas with only a small percentage of the tumour being made up of viable cells
same,Histology of subcutaneous tumours,[7]; listed as human LIF,"regressive, nectrotic tumour cells; also recorded: necrotic, regressive tumour cells"
same,Mitotic figures in tumours,[7],almost no mitotic figures
same,Mitotic figures in tumours,[7]; listed as human LIF,lack of mitotic figures
same,Viable areas of tumours,"[7]; hLIF treated, microscopic examination",< 20%
